Among the data in patent US7405236B2, “Indole derivatives comprising an acetylene group” (Hoffman-La Roche Inc., priority 2004, dated 2008) are IC50 values, retold here.

Settings in all cases: receptor binding, SPA
One experiment concerns the target T1, PPARα (Homo sapiens, UniProt Q07869).
T1 construct: PPARα (aa 167 to 469); made in house; host or cells: E. coli BL21(pLysS)
T1 sequence (Q07869 167-468 limits assumed): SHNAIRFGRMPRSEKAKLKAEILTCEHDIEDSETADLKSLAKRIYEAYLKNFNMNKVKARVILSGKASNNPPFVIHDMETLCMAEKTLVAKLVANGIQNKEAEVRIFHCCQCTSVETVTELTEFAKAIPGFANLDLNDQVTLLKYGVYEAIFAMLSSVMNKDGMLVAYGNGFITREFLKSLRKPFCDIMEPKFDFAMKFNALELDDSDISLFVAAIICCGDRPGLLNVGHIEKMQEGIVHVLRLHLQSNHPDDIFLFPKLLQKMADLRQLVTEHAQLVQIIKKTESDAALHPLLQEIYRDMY
In words: PPARα radioligand binding assay (scintillation proximity, GST-PPARα-LBD). The source says:
(§1) Background information on the performed assays can be found in: Nichols J S et al. “Development of a scintillation proximity assay for peroxisome proliferator-activated receptor gamma ligand binding domain”, (1998) Anal. Biochem. 257: 112-119.
(§2) Full-length cDNA clones for humans PPARδ and PPARα and mouse PPARγ were obtained by RT-PCR from human adipose and mouse liver cRNA, respectively, cloned into plasmid vectors and verified by DNA sequencing. Bacterial and mammalian expression vectors were constructed to produce glutathione-s-transferase (GST) and Gal4 DNA binding domain proteins fused to the ligand binding domains (LBD) of PPARδ (aa 139 to 442), PPARγ (aa 174 to 476) and PPARα (aa 167 to 469). To accomplish this, the portions of the cloned sequences encoding the LBDs were amplified from the full-length clones by PCR and then subcloned into the plasmid vectors. Final clones were verified by DNA sequence analysis. […]
PPARα receptor binding was assayed in TKE50 (50 mM Tris-HCl, pH 8, 50 mM KCl, 2 mM EDTA, 0.1 mg/ml fatty acid-free BSA and 10 mM DTT). […] All binding assays were performed in 96 well plates and the amount of bound ligand measured on a Packard TopCount using OptiPlates (Packard). Nonspecific binding was determined in the presence of 10^−4 M unlabelled compound. […]
For orientation: In a scintillation proximity assay essentially only radioactivity close to the scintillant gives light.

In another experiment the target is T2, PPARγ (Mus musculus, UniProt P37238).
T2 construct: PPARγ (aa 174 to 476); made in house; host or cells: E. coli BL21(pLysS)
T2 sequence (P37238 204-505): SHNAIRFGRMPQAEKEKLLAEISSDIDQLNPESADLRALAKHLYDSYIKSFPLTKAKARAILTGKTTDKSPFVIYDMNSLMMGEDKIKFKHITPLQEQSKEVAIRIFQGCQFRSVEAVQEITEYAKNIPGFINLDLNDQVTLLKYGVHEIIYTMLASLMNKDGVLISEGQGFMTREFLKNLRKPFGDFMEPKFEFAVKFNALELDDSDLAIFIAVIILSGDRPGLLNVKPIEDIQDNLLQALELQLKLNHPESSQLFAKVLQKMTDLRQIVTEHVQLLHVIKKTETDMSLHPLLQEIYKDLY
In words: PPARγ radioligand binding assay (scintillation proximity, GST-PPARγ-LBD).
Excerpt: as §1, §2
PPARγ receptor binding was assayed in TKE50 (50 mM Tris-HCl, pH 8, 50 mM KCl, 2 mM EDTA, 0.1 mg/ml fatty acid-free BSA and 10 mM DTT). […] All binding assays were performed in 96 well plates and the amount of bound ligand measured on a Packard TopCount using OptiPlates (Packard). Nonspecific binding was determined in the presence of 10^−4 M unlabelled compound. […]

For another experiment, the target named is T3, PPARδ (Homo sapiens, UniProt Q03181).
T3 construct: PPARδ (aa 139 to 442); made in house; host or cells: E. coli BL21(pLysS)
T3 sequence (Q03181 139-441 limits assumed): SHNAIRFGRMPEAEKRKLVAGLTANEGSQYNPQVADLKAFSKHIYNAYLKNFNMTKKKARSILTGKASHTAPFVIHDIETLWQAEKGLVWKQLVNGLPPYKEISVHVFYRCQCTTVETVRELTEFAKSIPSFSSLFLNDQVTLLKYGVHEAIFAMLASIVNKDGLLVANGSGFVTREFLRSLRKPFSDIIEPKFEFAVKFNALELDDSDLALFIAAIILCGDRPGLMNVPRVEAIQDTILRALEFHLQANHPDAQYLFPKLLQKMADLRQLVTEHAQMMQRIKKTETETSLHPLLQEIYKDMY
In words: PPARδ radioligand binding assay (scintillation proximity, GST-PPARδ-LBD).
Excerpt: as §1, §2
PPARδ receptor binding was assayed in HNM10 (50 mM Hepes, pH 7.4, 10 mM NaCl, 5 mM MgCl2, 0.15 mg/ml fatty acid-free BSA and 15 mM DTT). […] Radioligand was added and the reaction incubated at RT for 1 h and scintillation proximity counting performed in the presence of test compounds was determined. All binding assays were performed in 96 well plates and the amount of bound ligand was measured on a Packard TopCount using OptiPlates (Packard). […]

Some results are limits rather than exact numbers.

The IC50 is the concentration needed to halve the response being measured. `O=C(O)Cn1ccc2ccc(OCCCC#Cc3cccc(OC(F)(F)F)c3)cc21` [Example 2, {6-[5-(3-Trifluoromethoxy-phenyl)-pent-4-ynyloxy]-indol-1-yl}-acetic acid]: the IC50 is 317 nM on PPARα, above 10000 nM on PPARγ and 149 nM at PPARδ.

With `O=C(O)Cn1ccc2cc(OCCCC#Cc3ccc(OC(F)(F)F)cc3)ccc21` [Example 6, {5-[5-(4-Trifluoromethoxy-phenyl)-pent-4-ynyloxy]-indol-1-yl}-acetic acid], the results for the IC50 on PPARα, on PPARγ and at PPARδ were 74 nM, above 10000 nM and 301 nM, respectively.
